From ChEMBL document CHEMBL5465560, “Selectivity Literature for EUbOPEN Chemogenomic Library” (2024)

Legend:
[1] = biological target: Glycogen synthase kinase-3 beta (Homo sapiens, UniProt P49841); experiment: Selectivity interaction (KinomeScan (DiscoverX)) EUB0000092b GSK3B; conditions: at 10 µM
[2] = biological target: Insulin-like growth factor 1 receptor (Homo sapiens, UniProt P08069); experiment: Selectivity interaction (Upstate Kinase Profiler service (Millipore)) EUB0000056c IGF1R; conditions: at 1 µM
[3] = biological target: Casein kinase I isoform delta (Homo sapiens, UniProt P48730); experiment: Selectivity interaction (Upstate Kinase Profiler service (Millipore)) EUB0000056c CSNK1D; conditions: at 1 µM
[4] = system: Tyrosine-protein kinase ABL1 (Homo sapiens), P00519 [T315I]; conditions: at 10 µM
[5] = biological target: Serine/threonine-protein kinase Chk2 (Homo sapiens) (UniProt O96017); experiment: Selectivity interaction (KinomeScan (DiscoverX)) EUB0000045b CHEK2
[6] = biological target: Delta-type opioid receptor (Homo sapiens, UniProt P41143); experiment: Selectivity interaction (Eurofins CEREP Diversity Profile (receptors and ion channels)) EUB0000279b OPRD1; conditions: at 10 µM
[7] = biological target: T1, Phosphatidylinositol 3-kinase C2 domain-containing subunit gamma (Homo sapiens) (UniProt O75747); experiment: Selectivity interaction (Ambit KINOMEscan and KiNATiv profiling in Jurkat cells) EUB0000090b PIK3C2G; type: cell-based; conditions: at 1 µM
T1 sequence (whole entry): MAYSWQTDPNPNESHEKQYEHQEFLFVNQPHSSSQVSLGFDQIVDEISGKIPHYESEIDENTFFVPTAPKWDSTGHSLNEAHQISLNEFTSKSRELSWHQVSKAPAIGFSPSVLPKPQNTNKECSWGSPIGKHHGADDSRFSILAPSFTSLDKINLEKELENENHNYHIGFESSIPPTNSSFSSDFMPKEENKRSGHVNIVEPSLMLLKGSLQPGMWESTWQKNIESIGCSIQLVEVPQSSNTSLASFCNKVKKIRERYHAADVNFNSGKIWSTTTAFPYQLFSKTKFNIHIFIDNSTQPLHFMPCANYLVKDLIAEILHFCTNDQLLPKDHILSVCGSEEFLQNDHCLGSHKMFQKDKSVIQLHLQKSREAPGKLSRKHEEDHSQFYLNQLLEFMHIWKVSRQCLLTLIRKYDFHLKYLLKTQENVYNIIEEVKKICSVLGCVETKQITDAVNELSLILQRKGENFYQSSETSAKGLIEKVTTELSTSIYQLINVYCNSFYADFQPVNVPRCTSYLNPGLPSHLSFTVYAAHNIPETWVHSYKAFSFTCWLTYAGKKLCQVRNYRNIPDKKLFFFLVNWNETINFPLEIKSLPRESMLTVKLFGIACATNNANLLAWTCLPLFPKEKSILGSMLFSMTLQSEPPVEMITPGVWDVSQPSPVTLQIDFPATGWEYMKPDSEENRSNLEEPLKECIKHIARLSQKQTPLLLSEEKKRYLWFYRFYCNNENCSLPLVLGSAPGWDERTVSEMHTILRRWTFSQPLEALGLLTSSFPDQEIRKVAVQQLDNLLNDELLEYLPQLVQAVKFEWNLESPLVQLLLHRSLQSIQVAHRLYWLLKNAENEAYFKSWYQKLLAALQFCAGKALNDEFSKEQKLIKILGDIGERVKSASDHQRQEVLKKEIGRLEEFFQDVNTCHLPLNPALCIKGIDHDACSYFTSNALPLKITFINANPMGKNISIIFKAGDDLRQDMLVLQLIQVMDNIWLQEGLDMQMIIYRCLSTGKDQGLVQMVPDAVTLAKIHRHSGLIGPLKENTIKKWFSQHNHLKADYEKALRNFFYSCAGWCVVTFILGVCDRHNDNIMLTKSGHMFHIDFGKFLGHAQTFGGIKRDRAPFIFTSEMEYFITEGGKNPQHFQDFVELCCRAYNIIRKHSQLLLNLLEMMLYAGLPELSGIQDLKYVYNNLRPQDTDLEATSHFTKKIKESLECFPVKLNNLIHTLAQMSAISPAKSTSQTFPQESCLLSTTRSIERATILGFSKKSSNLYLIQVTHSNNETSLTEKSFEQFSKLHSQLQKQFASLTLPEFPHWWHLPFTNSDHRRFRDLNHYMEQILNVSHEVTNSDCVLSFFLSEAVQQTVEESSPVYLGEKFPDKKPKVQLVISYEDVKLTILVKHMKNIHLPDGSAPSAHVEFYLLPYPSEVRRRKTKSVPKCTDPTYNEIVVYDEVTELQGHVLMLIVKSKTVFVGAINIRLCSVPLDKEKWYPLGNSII

Chain of Serine/threonine-protein kinase Chk2 (Homo sapiens) (O96017 whole entry): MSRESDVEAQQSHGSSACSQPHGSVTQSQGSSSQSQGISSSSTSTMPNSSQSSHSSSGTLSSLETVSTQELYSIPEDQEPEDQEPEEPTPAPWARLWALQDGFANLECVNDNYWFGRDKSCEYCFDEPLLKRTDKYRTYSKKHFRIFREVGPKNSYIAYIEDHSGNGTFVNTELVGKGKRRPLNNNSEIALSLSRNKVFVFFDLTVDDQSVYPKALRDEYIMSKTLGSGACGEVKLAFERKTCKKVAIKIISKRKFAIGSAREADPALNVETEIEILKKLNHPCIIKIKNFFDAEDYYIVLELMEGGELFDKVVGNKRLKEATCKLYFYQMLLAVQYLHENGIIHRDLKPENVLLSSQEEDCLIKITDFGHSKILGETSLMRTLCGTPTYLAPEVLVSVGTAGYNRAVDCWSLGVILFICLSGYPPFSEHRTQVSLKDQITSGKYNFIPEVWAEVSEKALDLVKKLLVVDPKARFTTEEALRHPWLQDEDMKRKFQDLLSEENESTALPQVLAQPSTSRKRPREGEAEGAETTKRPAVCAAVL
Chain of Casein kinase I isoform delta (P48730 whole entry, looked up, canonical isoform): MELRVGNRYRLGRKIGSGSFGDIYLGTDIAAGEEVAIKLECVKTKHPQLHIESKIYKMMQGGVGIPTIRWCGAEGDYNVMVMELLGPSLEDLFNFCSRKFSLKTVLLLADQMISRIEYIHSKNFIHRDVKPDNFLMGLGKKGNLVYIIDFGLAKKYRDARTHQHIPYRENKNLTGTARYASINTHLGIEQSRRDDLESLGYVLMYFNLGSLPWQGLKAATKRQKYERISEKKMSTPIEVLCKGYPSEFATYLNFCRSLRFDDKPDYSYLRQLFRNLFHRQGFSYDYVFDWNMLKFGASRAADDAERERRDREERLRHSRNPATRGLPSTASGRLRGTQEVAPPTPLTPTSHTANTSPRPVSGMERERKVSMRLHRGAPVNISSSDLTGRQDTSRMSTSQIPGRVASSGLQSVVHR
Chain of Delta-type opioid receptor (P41143 whole entry, the tested form may be a part): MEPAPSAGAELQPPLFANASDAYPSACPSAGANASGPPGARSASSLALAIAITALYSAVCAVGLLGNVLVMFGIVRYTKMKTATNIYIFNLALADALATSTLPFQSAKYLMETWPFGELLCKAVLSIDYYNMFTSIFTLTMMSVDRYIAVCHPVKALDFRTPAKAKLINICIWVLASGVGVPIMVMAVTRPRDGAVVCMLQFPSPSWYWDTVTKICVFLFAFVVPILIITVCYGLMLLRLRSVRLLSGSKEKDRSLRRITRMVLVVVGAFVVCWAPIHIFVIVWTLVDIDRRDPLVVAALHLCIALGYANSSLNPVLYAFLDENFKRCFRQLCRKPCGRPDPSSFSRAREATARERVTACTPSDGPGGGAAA
Chain of Glycogen synthase kinase-3 beta (P49841 whole entry, looked up): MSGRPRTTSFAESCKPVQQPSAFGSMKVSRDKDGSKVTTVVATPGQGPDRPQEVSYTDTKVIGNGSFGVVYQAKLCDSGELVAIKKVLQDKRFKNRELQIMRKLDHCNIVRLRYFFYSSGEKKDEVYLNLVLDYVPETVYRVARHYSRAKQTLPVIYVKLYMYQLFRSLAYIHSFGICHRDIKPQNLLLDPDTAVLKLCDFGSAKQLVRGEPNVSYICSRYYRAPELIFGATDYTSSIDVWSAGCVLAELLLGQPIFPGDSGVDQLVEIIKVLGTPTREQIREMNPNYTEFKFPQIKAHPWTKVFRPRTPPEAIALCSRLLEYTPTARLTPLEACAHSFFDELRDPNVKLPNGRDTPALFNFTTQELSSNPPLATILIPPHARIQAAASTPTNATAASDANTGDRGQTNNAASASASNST
Chain of Insulin-like growth factor 1 receptor (P08069 31-736 limits assumed): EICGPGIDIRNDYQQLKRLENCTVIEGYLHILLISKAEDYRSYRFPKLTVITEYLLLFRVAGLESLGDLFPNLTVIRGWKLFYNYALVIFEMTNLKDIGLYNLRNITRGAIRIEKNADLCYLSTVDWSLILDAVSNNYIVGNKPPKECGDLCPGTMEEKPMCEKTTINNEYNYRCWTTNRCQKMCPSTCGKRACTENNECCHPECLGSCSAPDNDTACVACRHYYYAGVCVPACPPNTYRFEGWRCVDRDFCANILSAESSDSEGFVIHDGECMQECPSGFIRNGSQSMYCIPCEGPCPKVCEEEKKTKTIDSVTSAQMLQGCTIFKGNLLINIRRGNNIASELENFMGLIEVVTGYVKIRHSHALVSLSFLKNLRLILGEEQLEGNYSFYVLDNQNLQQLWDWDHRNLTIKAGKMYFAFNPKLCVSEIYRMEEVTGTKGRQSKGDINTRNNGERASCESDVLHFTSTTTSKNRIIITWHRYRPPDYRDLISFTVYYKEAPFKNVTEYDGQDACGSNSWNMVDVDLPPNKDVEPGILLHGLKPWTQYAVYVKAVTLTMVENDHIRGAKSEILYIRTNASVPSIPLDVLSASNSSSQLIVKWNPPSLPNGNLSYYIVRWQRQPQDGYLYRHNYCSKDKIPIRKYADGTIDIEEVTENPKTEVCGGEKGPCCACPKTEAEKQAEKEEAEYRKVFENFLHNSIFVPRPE
Chain of Insulin-like growth factor 1 receptor (P08069 741-1367 limits assumed): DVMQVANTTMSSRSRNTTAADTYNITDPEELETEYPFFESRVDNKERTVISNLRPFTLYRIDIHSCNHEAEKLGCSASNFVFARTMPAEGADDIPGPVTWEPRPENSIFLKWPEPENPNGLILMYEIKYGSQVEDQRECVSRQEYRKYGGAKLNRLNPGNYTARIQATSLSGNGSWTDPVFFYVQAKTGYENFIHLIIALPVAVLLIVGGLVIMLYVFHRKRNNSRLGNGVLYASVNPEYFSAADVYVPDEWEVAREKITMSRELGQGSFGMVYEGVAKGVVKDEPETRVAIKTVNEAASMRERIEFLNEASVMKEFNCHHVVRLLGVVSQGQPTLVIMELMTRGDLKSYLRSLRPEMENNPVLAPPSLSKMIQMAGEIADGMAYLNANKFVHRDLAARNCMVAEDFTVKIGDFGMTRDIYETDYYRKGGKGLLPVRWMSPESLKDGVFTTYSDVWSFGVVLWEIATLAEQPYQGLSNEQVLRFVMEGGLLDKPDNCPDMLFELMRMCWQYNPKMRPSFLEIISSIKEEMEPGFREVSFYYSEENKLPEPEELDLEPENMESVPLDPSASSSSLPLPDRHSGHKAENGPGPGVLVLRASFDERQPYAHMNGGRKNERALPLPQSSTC

SMILES: CCC(=O)N1CCN(c2ccc(-n3c(=O)ccc4cnc5ccc(-c6cnc7ccccc7c6)cc5c43)cc2C(F)(F)F)CC1
- % of control [1]: 100%

SMILES: Cc1ccc(-c2ccc3c(ccc4sc5c(c43)NC[C@@H](C)NC5=O)n2)cn1
- % of inhibition [2]: 0%
- % of inhibition [3]: -6%

SMILES: Cc1cc([C@@H](C)Nc2ccccc2C(=O)O)c2nc(N3CCOCC3)cc(=O)n2c1 [AZD-6482]
- % of control [4]: 70%

SMILES: C=CC(=O)Nc1cc(-n2c(=O)ccc3cnc4ccc(-c5ccc(NS(C)(=O)=O)cc5)cc4c32)ccc1C
- % of control ([5]; at 1 µM): 100%
- % of control ([5]; at 10 µM): 100%

SMILES: CC(=O)c1cc(-c2ccccc2OCC2CC2)c2ncccn12
- % of control [6]: 91%

SMILES: CN(C)C/C=C/C(=O)Nc1ccc(C(=O)N2CCCC(Nc3ncc(Cl)c(-c4c[nH]c5ccccc45)n3)C2)cc1 (stereo not drawn)
- % of control [7]: 100%
